Data on 20 molecules can be found in US8466191B2, “Pyrroline derivatives against cell releasing tumor necrosis factor, preparation methods and uses thereof” (priority 2006, dated 2013).

Each structure is given as a SMILES string.

The first assay deals with release of TNFα in peripheral blood mononuclear cells (PBMCs) stimulated by lipopolysaccharide (LPS). Briefly: Inhibition of the release of TNFα in peripheral blood mononuclear cells (PBMCs) stimulated by lipopolysaccharide (LPS), ELISA. It is filed as cell-based, human. The following applies: 3 μM compound; PBMCs 1×10^6 cells/mL, 1 hour preincubation, LPS 0.1 μg/mL, 20 hours incubation, TNFα in supernatant by ELISA. On the procedure: Pharmacological Research: Effects on the release of TNFα in peripheral blood mononuclear cells (PBMCs) stimulated by lipopolysaccharide (LPS) by compounds of the invention
Release of cytokine TNFα by PBMCs in the peripheral blood stimulated by lipid polysaccharide (LPS) was studied in vitro.
PBMCs collected from blood of at least three volunteers were pretreated with heparin by a gradient separation method, and washed three times with a 1640 culture medium (10% calf serum, 2 mM L-glutamine, […] mercaptoethanol, 50 μg/mL streptomycin, and 50 U/mL penicillin). The obtained PBMCs were then placed into a 24-well cell culture plate and the concentration was adjusted to 1×10^6 cells/mL with 1640 culture medium. The compounds to be tested were dissolved in dimethylsulfoxide to obtain a solution having a required concentration. The solution was added to the above-mentioned cell culture medium and cultured in an incubator (5% CO2, 90% humidity) for 1 hour. Then, LPS (Sigma) was added until the concentration reached 0.1 μg/mL (except for the control).
After 20 hours incubation, the content of TNFα in the supernatant of the PBMC culture medium was assayed using an ELISA kit (America Genzyme Co) by a standard method. The TNFα inhibition rate was calculated using values measured in the control well (not treated) and the test wells (treated with the compound to be tested). The concentration of compounds giving a 50% TNFα inhibition (IC50 value) was calculated using nonlinear regression analysis. Each concentration was determined twice and an average value was reported.
As for `COC(=O)CCN1C(=O)c2cscc2C1=O` [Example 15, methyl 3-(4,6-Dioxo-4H-thiophene[3,4-c]pyrrole-5(6H)-yl)propionate], the “Inhibition Rate (%)” value is listed as 40.9%. On the same count and under the same terms, then `CCOc1ccc(C(CC(=O)OC)N2C(=O)c3csc(N)c3C2=O)cc1OC` (centres unmarked) [Example 26, methyl 3-(3-Methoxy-4-ethoxy-phenyl)-3-(1-amino-4,6-dioxo-4H-thiophene[3,4-c]pyrrole-5(6H)-yl)propionate], with 93.6%.

As for `COC(=O)[C@@H](c1ccccc1)N1C(=O)c2csc(N)c2C1=O` [Example 30, D-methyl 2-(1-amino-4,6-dioxo-4H-thiophene[3,4-c]pyrrole-5(6H)-yl)-2-phenylacetate], the “Inhibition Rate (%)” value stood at 91.4%. The same measure, in the same setting: the figure for `COC(=O)[C@@H](c1ccccc1)N1C(=O)c2cscc2C1=O` [Example 18, D-methyl 2-(4,6-dioxo-4H-thiophene[3,4-c]pyrrole-5(6H)-yl)-2-phenylacetate] is 84.1%; for `CCOc1ccc(C(CC(=O)NO)N2C(=O)c3cscc3C2=O)cc1OC` (centres unmarked) [Example 59, 3-(3-Methoxy-4-ethoxy-phenyl)-3-(4,6-dioxo-4H-thiophene[3,4-c]pyrrole-5(6H)-yl)-N-hydroxy propionamide] it is 80%; for `COC(=O)CC(c1ccc(OC)c(OC)c1)N1C(=O)c2cscc2C1=O` (centres unmarked) [Example 1, methyl 3-(3,4-dimethoxy-phenyl)-3-(4,6-dioxo-4H-thiophene[3,4-c]pyrrole-5(6H)-yl)propionate] it is 87.6%.

`COC(=O)CC(c1ccc(OC)c(OC2CCCC2)c1)N1C(=O)c2csc(NC(C)=O)c2C1=O` (centres unmarked) [Example 31, methyl 3-(3-Cyclopentyloxy-4-methoxy-phenyl)-3-(1-acetylamino-4,6-dioxo-4H-thiophene[3,4-c]pyrrole-5(6H)-yl)propionate]: the “Inhibition Rate (%)” value worked out at 93.6%. For the molecule `COC(=O)[C@H](c1ccccc1)N1C(=O)c2cscc2C1=O` [Example 17, L-methyl 2-(4,6-dioxo-4H-thiophene[3,4-c]pyrrole-5(6H)-yl)-2-phenylacetate], the “Inhibition Rate (%)” value is reported as 83.5%. On the same count and under the same terms, then `CCOc1ccc(C(CC(=O)O)N2C(=O)c3cscc3C2=O)cc1OC` (centres unmarked) [Example 58, 3-(3-Methoxy-4-ethoxy-phenyl)-3-(4,6-dioxo-4H-thiophene[3,4-c]pyrrole-5(6H)-yl)propionic acid], with 20.7%; and `COC(=O)[C@H](c1ccccc1)N1C(=O)c2csc(N)c2C1=O` [Example 29, L-methyl 2-(1-amino-4,6-dioxo-4H-thiophene[3,4-c]pyrrole-5(6H)-yl)-2-phenylacetate], with 87.6%. Take `CCN(CC)CCC(c1ccc(OCc2ccccc2)c(OC)c1)N1C(=O)c2cscc2C1=O` (centres unmarked) [Example 55, 5-(1-(3-Methoxy-4-benzyloxyphenyl)-3-diethylamino-propyl)-5H-thiophene[3,4-c]pyrrole-4,6-dione]: the “Inhibition Rate (%)” value amounted to 50.2%. Turning to `COC(=O)CCCN1C(=O)c2cscc2C1=O` [Example 16, methyl 4-(4,6-Dioxo-4H-thiophene[3,4-c]pyrrole-5(6H)-yl)butyrate], the “Inhibition Rate (%)” value was 38.4%. Still for that read-out and setting: the figure for `CCOc1cc(C(CC#N)N2C(=O)c3csc(N)c3C2=O)ccc1OC` (centres unmarked) [Example 41, 3-(3-Ethoxy-4-methoxy-phenyl)-3-(1-amino-4,6-dioxo-4H-thiophene[3,4-c]pyrrole-5(6H)-yl)propionitrile] is 91.2%. Consider `COC(=O)CC(c1ccc(OC)c(OC)c1)N1C(=O)c2csc(N)c2C1=O` (centres unmarked) [Example 23, methyl 3-(3,4-Dimethoxy-phenyl)-3-(1-amino-4,6-dioxo-4H-thiophene[3,4-c]pyrrole-5(6H)-yl)propionate], for which the “Inhibition Rate (%)” value was determined as 95.4%. Same read-out and setting: the figure for `COc1cc(C(CCN(C)C)N2C(=O)c3cscc3C2=O)ccc1OCc1ccccc1` (centres unmarked) [Example 54, 5-(1-(3-Methoxy-4-benzyloxyphenyl)-3-dimethylamino-propyl)-5H-thiophene[3,4-c]pyrrole-4,6-dione] is 41.4%.

Take `COc1ccc(C(CC#N)N2C(=O)c3csc(N)c3C2=O)cc1OC1CCCC1` (centres unmarked) [Example 42, 3-(3-Cyclopentyloxy-4-methoxy-phenyl)-3-(1-amino-4,6-dioxo-4H-thiophene[3,4-c]pyrrole-5(6H)-yl)propionitrile]: the “Inhibition Rate (%)” value worked out at 94.8%.

In the case of `CCOc1ccc(C(CC#N)N2C(=O)c3csc(N)c3C2=O)cc1OC` (centres unmarked) [Example 38, 3-(3-Methoxy-4-ethoxy-phenyl)-3-(1-amino-4,6-dioxo-4H-thiophene[3,4-c]pyrrole-5(6H)-yl)propionitrile], the “Inhibition Rate (%)” value came out at 94.9%. Regarding `COc1ccc(C(CC#N)N2C(=O)c3csc(N)c3C2=O)cc1OC` (centres unmarked) [Example 39, 3-(3,4-dimethoxy-phenyl)-3-(1-amino-4,6-dioxo-4H-thiophene[3,4-c]pyrrole-5(6H)-yl)propionitrile], the “Inhibition Rate (%)” value stood at 93.4%. Take `COc1cc(C(CC#N)N2C(=O)c3csc(N)c3C2=O)ccc1OCc1ccccc1` (centres unmarked) [Example 40, 3-(3-Methoxy-4-benzyloxyphenyl)-3-(1-amino-4,6-dioxo-4H-thiophene[3,4-c]pyrrole-5(6H)-yl)propionitrile]: the “Inhibition Rate (%)” value was 83.6%.

The assay is the same for the next values; noted with them: Homo sapiens, PBMC; 3 μM compound; PBMCs 1×10^6 cells/mL, 1 hour preincubation, LPS 0.1 μg/mL, 20 hours incubation, TNFα in supernatant by ELISA; read-out: Inhibition Rate (%).
Broadly, the inhibition is the relative decrease from the control value, in per cent. As to `O=C1CCC(N2C(=O)c3ccccc3C2=O)C(=O)N1` (centres unmarked) [Thalidomide, reference compound], the inhibition at 3 µM turned out to be 22%.
